Reference: the NIST ThermoML archive (doi:10.1016/j.fluid.2014.02.018)
± gives the expanded uncertainty stated by the source.

Details: 313.15 K; Liquid; Closed cell (Static) method

vapor or sublimation pressure [kPa] | SMILES
12.95 ± 0.031 | CC(C)CC(C)(C)C [2,2,4-trimethylpentane]
6.045 ± 0.02 | CCC(C)O (stereo not drawn) [butan-2-ol]
44.98 ± 0.2 | C=CCCCC [hex-1-ene]
